In US7303921B2, “Method to assay coenzyme Q10 in blood plasma or blood serum” (priority 2002, dated 2007):
Values joined by “and” are separate entries in the source; they are usually repeats but may differ in a detail not shown here. Equal entries are not always repeated.

What was measured:
[1] = Stability of the n-propanol extract (supernatant) of plasma CoQ10; format: physicochemical
Procedure: (§1) Description of the Analysis. 200 μl of a blood plasma sample were supplemented with 50 μl of a 1,4 benzoquinone solution (2 mg/ml) in a test tube and vortexed for 10 seconds. After 10 minutes, 1 ml of n-propanol was added. The test tube was vortexed for 10 seconds and centrifuged at 10,000 rpm for 2 minutes in order to spin down the protein precipitate. 200 μl of the supernatant were injected into the HPLC. […] Mobile phase was constituted by ethanol-methanol (65%-35%) and the flux was 1 ml/min. UV detection was performed at 275 nm.
For practical reasons the propanol extract can be kept in the refrigerator up to 3 days before injection into the HPLC. Several samples were checked by analysing them 1 hour, 1, 2 and 4 days after drawing the blood, keeping the samples at −20° C., 0-4° C., or +22° C. (room temperature) and the results, as far as total CoQ10 was concerned, were the same for the same sample whether kept at different temperatures or for different lengths of time (presumably only the reduced/oxidised CoQ10 ratio changed). There was no need to add any stabilizing agent to the sample.

[2] = Stability of total CoQ10 in plasma at different storage conditions and times; format: physicochemical, human
Procedure: In order to check the stability of total CoQ10 in plasma, aliquots of 3 different samples were kept for 3 days at 4° C., room temperature (22° C.) and at −20° C. respectively.
as §1

## COC1=C(OC)C(=O)C(C/C=C(\C)CC/C=C(\C)CC/C=C(\C)CC/C=C(\C)CC/C=C(\C)CC/C=C(\C)CC/C=C(\C)CC/C=C(\C)CC/C=C(\C)CCC=C(C)C)=C(C)C1=O [CoQ10]
[1]; capped test tube, kept at 22° C.
  stability of supernatant (propanol extract): stable for up to three days
[1]; in the refrigerator
  time the propanol extract can be kept before injection into the HPLC: up to 3 days
[2]; 0-4° C., 72 h, plasma samples A, B, C
  Mean total CoQ10: 1.82 µM and 1.11 µM
[2]; 1 hour, 1, 2 and 4 days after drawing the blood, −20° C., 0-4° C. or +22° C., no stabilizing agent
  total CoQ10 result after storage of samples: the same
[2]; even when kept at room temperature
  stability of total CoQ10 in plasma: practically stable for at least three days
